Consider 17 compounds from patent US8450301B2, “Piperazine compounds with a herbicidal action” (BASF SE, priority 2006, dated 2013).

Assay type in all cases: in vivo
The subject of assay [1] is Echinochloa crus galli (ECHCG). Put plainly: greenhouse experiment, pre-emergence treatment. Particulars: application rate 3 kg/ha, scale 0 to 100. An excerpt:
(§1) The culture containers used were plastic flowerpots containing loamy sand with approximately 3.0% of humus as the substrate. The seeds of the test plants were sown separately for each species.
(§2) For the pre-emergence treatment, the active ingredients, which had been suspended or emulsified in water, were applied directly after sowing by means of finely distributing nozzles. The containers were irrigated gently to promote germination and growth and subsequently covered with transparent plastic hoods until the plants had rooted. This cover caused uniform germination of the test plants, unless this has been impaired by the active ingredients.
(§3) Depending on the species, the plants were kept at 10-25° C. or 20-35° C. The test period extended over 2 to 4 weeks. During this time, the plants were tended, and their response to the individual treatments was evaluated.
(§4) Evaluation was carried out using a scale from 0 to 100. 100 means no emergence of the plants, or complete destruction of at least the aerial moieties, and 0 means no damage, or normal course of growth. A good herbicidal activity is given at values of at least 70 and a very good herbicidal activity is given at values of at least 85.

For assay [2], the system named is Setaria faberi (SETFA). Put plainly: greenhouse experiment, post-emergence treatment. The note with it: application rate 3 kg/ha, scale 0 to 100.
Source text: as §1
(§5) For the post-emergence treatment, the test plants were first grown to a height of 3 to 15 cm, depending on the plant habit, and only then treated with the active ingredients which had been suspended or emulsified in water. For this purpose, the test plants were either sown directly and grown in the same containers, or they were first grown separately as seedlings and transplanted into the test containers a few days prior to treatment.
as §3, §4

Assay [3] concerns SETIT. Put plainly: greenhouse experiment, pre-emergence treatment. The note with it: application rate 3 kg/ha, scale 0 to 100.
Source text: as §1, §2, §3, §4

Assay [4] deals with Setaria faberi (SETFA). Put plainly: greenhouse experiment, pre-emergence treatment. Particulars: application rate 3 kg/ha, scale 0 to 100.
Source text: as §1, §2, §3, §4

For assay [5], the system named is Alopecurus myosuroides (ALOMY). The experiment in a line: greenhouse experiment, post-emergence treatment. The note with it: application rate 3 kg/ha, scale 0 to 100.
Source text: as §1, §5, §3, §4

For assay [6], the system named is Avena fatua (AVEFA). The experiment in a line: greenhouse experiment, post-emergence treatment. The note with it: application rate 3 kg/ha, scale 0 to 100.
Source text: as §1, §5, §3, §4

Assay [7] concerns Amaranthus retroflexus (AMARE). The experiment in a line: greenhouse experiment, pre-emergence treatment. Particulars: application rate 0.5 kg/ha, scale 0 to 100.
Source text: as §1, §2, §3, §4

Assay [8] has as its system Apera spica-venti (APESV). The experiment in a line: greenhouse experiment, pre-emergence treatment. Particulars: application rate 0.5 kg/ha, scale 0 to 100.
Source text: as §1, §2, §3, §4

Each structure is given as a SMILES string.

`CC(C)=CCN1C(=O)C(Cc2ccccc2[N+](=O)[O-])N(C)C(=O)C1Cc1ccccc1` (single isomer, unassigned) [A.2.64]: in assay [1], the “herbicidal pre-emergence activity against ECHCG” value is on record as “good to very good”. Further, in assay [2], the “herbicidal post-emergence activity against SETFA” value is on record as “good to very good”. Turning to `CC(C)OC(=O)CN1C(=O)C(Cc2ccccc2[N+](=O)[O-])N(C)C(=O)C1Cc1ccccc1` (single isomer, unassigned) [A.2.65], the “herbicidal post-emergence activity against SETFA” value in assay [2] is recorded as “good to very good”.

Regarding `CN1C(=O)C(C(OS(C)(=O)=O)c2ccccc2[N+](=O)[O-])N(C)C(=O)C1Cc1ccccc1` (single isomer, unassigned) [A.2.265], the “herbicidal pre-emergence activity against ECHCG” value in assay [1] is “good to very good”. Further, the “herbicidal pre-emergence activity against SETIT” value in assay [3] is “good to very good”. Also, the “herbicidal post-emergence activity against SETFA” value in assay [2] is on record as “good to very good”.

In the case of `CN1C(=O)C(C(OS(C)(=O)=O)c2ccccc2[N+](=O)[O-])N(C)C(=O)C1Cc1ccccc1` (single isomer, unassigned) [A.2.267], the “herbicidal pre-emergence activity against ECHCG” value in assay [1] is given as “good to very good”. Besides, in assay [3], the “herbicidal pre-emergence activity against SETIT” value was “good to very good”. Moreover, in assay [2], the “herbicidal post-emergence activity against SETFA” value is listed as “good to very good”. `CN1C(=O)C(C(O[Si](C)(C)C)c2ccccc2[N+](=O)[O-])N(C)C(=O)C1Cc1ccccc1` (single isomer, unassigned) [A.2.271]: the “herbicidal pre-emergence activity against SETIT” value in assay [3] is “good to very good”. For the compound `CC(Oc1ccc(CC2C(=O)N(C)C(Cc3ccccc3)C(=O)N2C)c([N+](=O)[O-])c1)C(=O)O` (centres unmarked) [A.1.13], the “herbicidal pre-emergence activity against SETIT” value in assay [3] was “good to very good”.

Consider `CN1C(=O)C(Cc2ccccc2C#N)N(C)C(=O)C1Cc1ccccc1` (centres unmarked) [A.2.81], for which the “herbicidal pre-emergence activity against SETFA” value in assay [4] was “very good (a very good herbicidal activity is given at values of at least 85)”. On to `CN1C(=O)C(Cc2ccccc2NS(C)(=O)=O)N(C)C(=O)C1Cc1ccccc1` (centres unmarked) [A.2.105], for which the “herbicidal pre-emergence activity against ECHCG” value in assay [1] was “good to very good”. Further, the “herbicidal post-emergence activity against ALOMY” value in assay [5] is recorded as “very good (a very good herbicidal activity is given at values of at least 85)”. Besides, the “herbicidal post-emergence activity against AVEFA” value in assay [6] was “very good (a very good herbicidal activity is given at values of at least 85)”. In the case of `CN1C(=O)C(Cc2c(Br)cccc2[N+](=O)[O-])N(C)C(=O)C1Cc1ccccc1` (centres unmarked) [A.2.133], the “herbicidal pre-emergence activity against ECHCG” value in assay [1] is “good to very good”. The “herbicidal post-emergence activity against SETFA” value in assay [2] was “good to very good”. As to `C#Cc1ccccc1CC1C(=O)N(C)C(Cc2ccccc2)C(=O)N1C` (centres unmarked) [A.2.135], in assay [1], the “herbicidal pre-emergence activity against ECHCG” value is “good to very good”. Also, the “herbicidal pre-emergence activity against SETIT” value in assay [3] is “good to very good”. Also, the “herbicidal post-emergence activity against SETFA” value in assay [2] is on record as “good to very good”. Regarding `CC(=O)OC(c1ccccc1[N+](=O)[O-])C1C(=O)N(C)C(Cc2ccccc2)C(=O)N1C` (centres unmarked) [A.2.251], the “herbicidal post-emergence activity against SETFA” value in assay [2] was “good to very good”. On to `CN1C(=O)C(C(OCc2ccccc2)c2ccccc2[N+](=O)[O-])N(C)C(=O)C1Cc1ccccc1` (centres unmarked) [A.2.255], for which, in assay [2], the “herbicidal post-emergence activity against SETFA” value is on record as “good to very good”. On to `Cc1cc(-c2ccccc2CC2C(=O)N(C)C(Cc3ccccc3)C(=O)N2C)on1` (centres unmarked) [A.2.273], for which the “herbicidal pre-emergence activity against ECHCG” value in assay [1] is on record as “good to very good”. The “herbicidal pre-emergence activity against SETIT” value in assay [3] is recorded as “good to very good”. In addition, the “herbicidal post-emergence activity against SETFA” value in assay [2] is given as “good to very good”.

As for `C=Cc1ccccc1CC1C(=O)N(C)C(Cc2ccccc2)C(=O)N1C` (centres unmarked) [A.2.274], in assay [1], the “herbicidal pre-emergence activity against ECHCG” value is “good to very good”. Also, the “herbicidal post-emergence activity against SETFA” value in assay [2] is on record as “good to very good”.

Regarding `CCS(=O)(=O)OC(c1ccccc1[N+](=O)[O-])C1C(=O)N(C)C(Cc2ccccc2)C(=O)N1C` (centres unmarked) [A.2.275], in assay [1], the “herbicidal pre-emergence activity against ECHCG” value is on record as “good to very good”. Besides, the “herbicidal post-emergence activity against SETFA” value in assay [2] was “good to very good”.

Turning to `COS(=O)(=O)C(c1cccnc1Br)C1C(=O)N(C)C(Cc2ccccc2)C(=O)N1C` (centres unmarked) [A.5.16, methyl (5-benzyl-1,4-dimethyl-3,6-dioxopiperazin-2-yl)-(2-bromopyridin-3-yl)methanesulfonate], in assay [3], the “herbicidal pre-emergence activity against SETIT” value was “good to very good”. Consider `COS(=O)(=O)C(c1ccccc1[N+](=O)[O-])C1C(=O)N(C)C(Cc2cccs2)C(=O)N1C` (centres unmarked) [A.5.17, methyl [1,4-dimethyl-3,6-dioxo-5-(thiophen-2-ylmethyl)piperazin-2-yl]-(2-nitrophenyl) methanesulfonate], for which, in assay [7], the “herbicidal pre-emergence activity against AMARE” value is given as “very good (a very good herbicidal activity is given at values of at least 85)”. The “herbicidal pre-emergence activity against APESV” value in assay [8] is “good (A good herbicidal activity is given at values of at least 70)”.
